# Measured values published in publication PMC11435156, “Exploring Quinazoline Nitro-Derivatives as Potential Antichagasic Agents: Synthesis and In Vitro Evaluation” (Molecules, 2024).
# Read-outs that look alike come from different tables or passages of the source. Marks after values point to notes of the source that are not given here.
# Assays:
# [1] = system: HFF1 human foreskin fibroblasts; assay: Viability of human foreskin fibroblasts (trypan blue exclusion); details: for HFF1 LD50: human
# Method: To evaluate the effect on cell viability, HFF1 cells cultured and washed as above were dispensed in a 96 well plate to a concentration of 1 × 10^4 cells/well in 0.2 mL and incubated for 24 h at 37 °C for adherence. […] To determine viability, cells were detached by trypsinization and then collected, and viability was determined by trypan blue exclusion.
# [2] = system: T. cruzi Queretaro strain epimastigotes; assay: Growth of epimastigotes cultured in vitro (motile parasites counted, relative growth); type: cell-based, Trypanosoma cruzi; details: for S.I. LD50/ED50: HFF1 LD50 / epimastigote ED50; for IC50: Trypanosoma cruzi, read-out: Epi ED50; for Epi ED50 (initial screening): initial screening done in 5 mL culture; for antiparasitic effect, summary in words: epimastigotes and trypomastigotes, summary of Table 2
# Method: Epimastigotes were grown at 28 °C.
# Epimastigotes were grown in LIT medium at the exponential phase and aliquots of 1 × 10^5 parasites were dispensed in 200 µL/well in a 96-well culture plate (Corning; NY, USA). […] Control samples without the compounds were supplemented with the maximum amount of vehicle used. […] Afterwards, the number of mobile epimastigotes (motility as parameter of viability) was counted in a Neubauer chamber. Relative growth is the difference of the final density of parasites after 24 h of treatment with the compound minus the density of parasites at time 0 of exposure; these differences were further normalized to the relative growth of the culture without compound. Plots of the percentage of relative growth against compound concentration were built and data adjusted to dose–response equation with the Origin Pro software (Origin Pro version 8.0) to calculate the concentration at which the variable is decreased by 50%.
# [3] = system: T. cruzi Queretaro strain trypomastigotes; assay: Viability of trypomastigotes (motility as parameter of viability); type: cell-based; details: Trypanosoma cruzi, read-out: Trypo LD50
# Method: For the primary infection, 20,000 HFF1 cells/mL were inoculated in 5 mL DMEM supplemented with 10% FBS in a 175 cm^2 flask (Corning; Corning, NY, USA;) and cultivated at 37 °C and 5% CO2 for 24 h for adherence. Afterwards, the medium was changed to DMEM supplemented with 2% FBS and the cells were infected with 10 × 10^6 epimastigotes previously collected and washed with 10 mL DMEM without FBS. The cells were incubated for 48 h at 37 °C and 5% CO2 and later washed every 24 h with DMEM with 2%FBS until trypomastigotes liberation (5–7 days post infection).
# For the secondary infection, LLC-MK2 cells (epithelial cells from the kidney of an adult monkey) were infected in a similar fashion to the primary infection, but using 1 × 10^6 trypomastigotes obtained from the primary infection. The released trypomastigotes were used immediately for drug treatment.
# The number of mobile trypomastigotes (motility as parameter of viability) was determined using a Neubauer chamber. Data were processed as above.
# [4] = 120 h, epimastigote growth, 5 days, single initial pulse of compound
# [5] = epimastigote relative growth, 24 h treatment, 96-well plate
# [6] = trypomastigote viability, 3 h treatment
SMILES,HFF1 LD50 ([1]; 24 h),HFF1 LD50 ([1]; 5 days),S.I. LD50/ED50 ([2]; 24 h),S.I. LD50/ED50 ([2]; 5 days),"IC50 [2, 4]","IC50 [2, 5]","LC50 [3, 6]","Epi ED50 (initial screening) ([2]; epimastigote growth, 24 h)",LC50 ([3]; 3 h),cytotoxicity on HFF1 ([1]; 5 days),"concentration at which cytotoxicity started to show ([1]; HFF1, 24 h treatment)","antiparasitic effect, summary in words [2]",cytotoxicity on HFF1 ([1]; 24 h treatment)
"Nc1nc(N)c2cc(NC(=O)c3ccccc3[N+](=O)[O-])ccc2n1 [Compound 2, N-(2,4-Diaminequinazolin-6-yl)-2-nitrobenzamide]",>100 (6) µM,>100 (2) µM,≥5,≥6.7,15 ± 3 µM,19 ± 2 µM,95 µM,,,,,,
Nc1nc(N)c2cc(NCc3ccccc3[N+](=O)[O-])ccc2n1 [Compound 6],,,,,,,,143 * (2) µM,,,,,
Nc1nc(N)c2cc(NCc3ccc(Cl)cc3)ccc2n1 [Compound 10],116 ± 13 (6) µM,>100 (2) µM,13,≥7,14 ± 1.2 µM,8.9 ± 2 µM,> 150 µM,,,,,,
Nc1nc(N)c2cc(NCc3ccccc3)ccc2n1 [Compound 5],>60 (4) µM,26 (2) µM,≥5,,14 ± 2 µM,13 ± 3 µM,,,> 150 µM,,,,
"Nc1nc(N)c2cc(NC(=O)c3ccc([N+](=O)[O-])cc3)ccc2n1 [Compound 4, N-(2,4-Diaminequinazolin-6-yl)-4-nitrobenzamide]",>100 (6) µM,>100 (2) µM,≥10,≥10,10 µM,10 ± 0.4 µM,60 µM,,,,,,
Nc1nc(N)c2cc(NCc3ccccc3OC(F)(F)F)ccc2n1 [Compound 12],,,,,,,,44 ± 3 (3) µM,,,,,
"Nc1nc(N)c2cc(NC(=O)c3cccc([N+](=O)[O-])c3)ccc2n1 [Compound 3, N-(2,4-Diaminequinazolin-6-yl)-3-nitrobenzamide]",>100 (6) µM,>100 (2) µM,≥42,≥11,8.9 µM,2.4 ± 0.4 µM,50 µM,,,,,,
Nc1nc(N)c2cc(NCc3cccc(Cl)c3)ccc2n1 [Compound 9],85 ± 7 (6) µM,>100 (2) µM,11,≥12,8.1 ± 1.8 µM,7.6 ± 2.5 µM,> 150 µM,,,,,,
"O=C(Cn1ccnc1[N+](=O)[O-])NCc1ccccc1 [Bnz, N-benzyl-2-(2-nitroimidazol-1-yl) acetamide, reference compound]",165 ± 27 (3) µM,118 ± 14 (3) µM,18,7,17 ± 10 µM,9.4 ± 1.3 µM,183 µM,,,high cytotoxicity,> 50 µM,,
Nc1nc(N)c2cc(NCc3ccccc3Cl)ccc2n1 [Compound 8],8.6 ± 2 (4) µM,8 (2) µM,4,,6.6 ± 0.5 µM,2.3 ± 0.5 µM,,,59 µM,,,highly toxic for parasites and fibroblasts,
Nc1nc(N)c2cc(NCc3cccc(O)c3)ccc2n1 [Compound 13],,,,,,,,>100 * (2) µM,,,,,
"Nc1nc(N)c2cc(NCc3cc(F)ccc3F)ccc2n1 [Compound 11, N^6-(2,5-Difluorobenzyl)quinazoline-2,4,6-triamine]",>60 (4) µM,>60 (1) µM,≥7,≥3,20 ± 2 µM,9 ± 1.4 µM,> 150 µM,,,,,,
"Nc1nc(N)c2cc(NC(=O)c3ccccc3)ccc2n1 [Compound 1, N-(2,4-Diaminequinazolin-6-yl)benzamide]",>100 (6) µM,>100 (2) µM,,,> 100 µM,> 100 µM,,,> 150 µM,,,did not showed an effect in parasites nor in cells,did not show either cytotoxicity or parasiticidal effects
"CC1CS(=O)(=O)CCN1/N=C/c1ccc([N+](=O)[O-])o1 (stereo not drawn) [Nfx, (E)-N-(3-methyl-1,1-dioxo-1,4-thiazinan-4-yl)-1-(5-nitrofuran-2-yl) methanimine, reference compound]",,,,,11.8 ± 0.1 µM,3.8 ± 1.2 µM,,,,,,,
"COc1cc(CNc2ccc3nc(N)nc(N)c3c2)cc(OC)c1OC [Compound 14, N^6-(3,4,5-Trimethoxybenzyl)quinazoline-2,4,6-triamine]",,,,,,,,>100 * (2) µM,,,,,
Nc1nc(N)c2cc(NCc3ccc([N+](=O)[O-])cc3)ccc2n1 [Compound 7],,,,,,,,>100 * (2) µM,,,,,
